Data reported in US11006631B2, “Substituted pyrimidinyloxy pyridine derivatives as herbicides” (FMC Corporation, priority 2015, dated 2021).

Legend:
Type in all cases: in vivo
[1] = test system: velvetleaf (Abutilon theophrasti); experiment: Test A postemergence, velvetleaf; settings: 0 to 100 scale
Text: (§1) Seeds of plant species selected from bamyardgrass (Echinochloa crus-galli), kochia (Kochia scoparia), ragweed (common ragweed, Ambrosia elatior), ryegrass, Italian (Italian ryegrass, Lolium multiflorum), foxtail, giant (giant foxtail, Setaria faberii), pigweed (Amaranthus retroflexus), crabgrass, large (large crabgrass, Digitaria sanguinalis), momingglory (Ipomoea spp.), velvetleaf (Abutilon theophrasti), wheat (Triticum aestivum), and corn (Zea mays) were planted into a blend of loam soil and sand and treated preemergence with a directed soil spray using test chemicals formulated in a non-phytotoxic solvent mixture which included a surfactant. At the same time, plants selected from these crop and weed species and also blackgrass (Alopecurus myosuroides), and galium (catchweed bedstraw, Galium aparine) were planted in pots containing the same blend of loam soil and sand and treated with postemergence applications of test chemicals formulated in the same manner. Plants ranged in height from 2 to 10 cm and were in the one- to two-leaf stage for the postemergence treatment. Treated plants and untreated controls were maintained in a greenhouse for approximately 10 days, after which time all treated plants were compared to untreated controls and visually evaluated for injury. Plant response ratings, summarized in Table A, are based on a 0 to 100 scale where 0 is no effect and 100 is complete control. A dash (-) response means no test result.

[2] = test system: foxtail, giant (giant foxtail, Setaria faberii); experiment: Test A preemergence, foxtail, giant; settings: 0 to 100 scale
Text: as §1

[3] = test system: wheat (Triticum aestivum); experiment: Test A postemergence, wheat; settings: 0 to 100 scale
Text: as §1

[4] = test system: morningglory (Ipomoea spp.); experiment: Test A preemergence, morningglory; settings: 0 to 100 scale
Text: as §1

[5] = test system: velvetleaf (Abutilon theophrasti); experiment: Test A preemergence, velvetleaf; settings: 0 to 100 scale
Text: as §1

[6] = test system: crabgrass, large (large crabgrass, Digitaria sanguinalis); experiment: Test A preemergence, crabgrass, large; settings: 0 to 100 scale
Text: as §1

[7] = test system: sedge, umbrella (small-flower umbrella sedge, Cyperus difformis); experiment: Test B flooded paddy test, sedge, umbrella; settings: Flood, 250 g ai/ha; scale of 0 to 100
Procedure: (§2) Plant species in the flooded paddy test selected from rice (Oryza sativa), sedge, umbrella (small-flower umbrella sedge, Cyperus difformis), ducksalad (Heteranthera limosa), and barnyardgrass (Echinochloa crus-galli) were grown to the 2-leaf stage for testing. At time of treatment, test pots were flooded to 3 cm above the soil surface, treated by application of test compounds directly to the paddy water, and then maintained at that water depth for the duration of the test. Treated plants and controls were maintained in a greenhouse for 13 to 15 days, after which time all species were compared to controls and visually evaluated. Plant response ratings, summarized in Table B, are based on a scale of 0 to 100 where 0 is no effect and 100 is complete control. A dash (-) response means no test result.

[8] = test system: morningglory (Ipomoea spp.); experiment: Test A postemergence, morningglory; settings: 0 to 100 scale
Text: as §1

rice (Oryza sativa) = experiment: Test B flooded paddy test, rice; settings: Flood, 250 g ai/ha; scale of 0 to 100
Procedure: as §2

[9] = test system: wheat (Triticum aestivum); experiment: Test A preemergence, wheat; settings: 0 to 100 scale
Text: as §1

[10] = test system: foxtail, giant (giant foxtail, Setaria faberii); experiment: Test A postemergence, foxtail, giant; settings: 0 to 100 scale
Text: as §1

[11] = test system: barnyardgrass (Echinochloa crus-galli); experiment: Test A postemergence, barnyardgrass; settings: 0 to 100 scale
Text: as §1

[12] = test system: pigweed (Amaranthus retroflexus); experiment: Test A postemergence, pigweed; settings: 0 to 100 scale
Text: as §1

[13] = test system: crabgrass, large (large crabgrass, Digitaria sanguinalis); experiment: Test A postemergence, crabgrass, large; settings: 0 to 100 scale
Text: as §1

corn (Zea mays) [14] = experiment: Test A postemergence, corn; settings: 0 to 100 scale
Text: as §1

[15] = test system: barnyardgrass (Echinochloa crus-galli); experiment: Test A preemergence, barnyardgrass; settings: 0 to 100 scale
Text: as §1

corn (Zea mays) [16] = experiment: Test A preemergence, corn; settings: 0 to 100 scale
Text: as §1

[17] = test system: pigweed (Amaranthus retroflexus); experiment: Test A preemergence, pigweed; settings: 0 to 100 scale
Text: as §1

[18] = test system: ducksalad (Heteranthera limosa); experiment: Test B flooded paddy test, ducksalad; settings: Flood, 250 g ai/ha; scale of 0 to 100
Procedure: as §2

[19] = test system: ryegrass, Italian (Italian ryegrass, Lolium multiflorum); experiment: Test A preemergence, ryegrass, Italian; settings: 0 to 100 scale
Text: as §1

[20] = test system: blackgrass (Alopecurus myosuroides); experiment: Test A postemergence, blackgrass; settings: 0 to 100 scale
Text: as §1

[21] = test system: ryegrass, Italian (Italian ryegrass, Lolium multiflorum); experiment: Test A postemergence, ryegrass, Italian; settings: 0 to 100 scale
Text: as §1

[22] = test system: ragweed (common ragweed, Ambrosia elatior); experiment: Test A preemergence, ragweed; settings: 0 to 100 scale
Text: as §1

[23] = test system: ragweed (common ragweed, Ambrosia elatior); experiment: Test A postemergence, ragweed; settings: 0 to 100 scale
Text: as §1

kochia (Kochia scoparia) [24] = experiment: Test A preemergence, kochia; settings: 0 to 100 scale
Text: as §1

kochia (Kochia scoparia) [25] = experiment: Test A postemergence, kochia; settings: 0 to 100 scale
Text: as §1

[26] = test system: galium (catchweed bedstraw, Galium aparine); experiment: Test A postemergence, galium; settings: 0 to 100 scale
Text: as §1

[27] = test system: barnyardgrass (Echinochloa crus-galli); experiment: Test B flooded paddy test, barnyardgrass; settings: Flood, 250 g ai/ha; scale of 0 to 100
Procedure: as §2

Compound: Clc1cnc(Oc2cccnc2-n2cc(-c3ccccc3)cn2)nc1 [Compound 4]
- Plant response rating, Velvetleaf ([1]; 125 g ai/ha): 0
- Plant response rating, Velvetleaf ([1]; 500 g ai/ha): 0
- Plant response rating, Foxtail, Giant ([2]; 125 g ai/ha): 0
- Plant response rating, Foxtail, Giant ([2]; 500 g ai/ha): 0
- Plant response rating, Wheat ([3]; 125 g ai/ha): 0
- Plant response rating, Wheat ([3]; 500 g ai/ha): 0
- Plant response rating, Morningglory ([4]; 125 g ai/ha): 0
- Plant response rating, Morningglory ([4]; 500 g ai/ha): 0
- Plant response rating, Velvetleaf ([5]; 125 g ai/ha): 0
- Plant response rating, Velvetleaf ([5]; 500 g ai/ha): 0
- Plant response rating, Crabgrass, Large ([6]; 125 g ai/ha): 0
- Plant response rating, Crabgrass, Large ([6]; 500 g ai/ha): 0
- Plant response rating, Sedge, Umbrella [7]: 70
- Plant response rating, Morningglory ([8]; 125 g ai/ha): 0
- Plant response rating, Morningglory ([8]; 500 g ai/ha): 10
- Plant response rating, Rice (rice (Oryza sativa)): 10
- Plant response rating, Wheat ([9]; 125 g ai/ha): 0
- Plant response rating, Wheat ([9]; 500 g ai/ha): 0
- Plant response rating, Foxtail, Giant ([10]; 125 g ai/ha): 0
- Plant response rating, Foxtail, Giant ([10]; 500 g ai/ha): 0
- Plant response rating, Barnyardgrass ([11]; 125 g ai/ha): 0
- Plant response rating, Barnyardgrass ([11]; 500 g ai/ha): 20
- Plant response rating, Pigweed ([12]; 125 g ai/ha): 20
- Plant response rating, Pigweed ([12]; 500 g ai/ha): 70
- Plant response rating, Crabgrass, Large ([13]; 125 g ai/ha): 0
- Plant response rating, Crabgrass, Large ([13]; 500 g ai/ha): 0
- Plant response rating, Corn (corn (Zea mays) [14]; 125 g ai/ha): 0
- Plant response rating, Corn (corn (Zea mays) [14]; 500 g ai/ha): 30
- Plant response rating, Barnyardgrass ([15]; 125 g ai/ha): 0
- Plant response rating, Barnyardgrass ([15]; 500 g ai/ha): 0
- Plant response rating, Corn (corn (Zea mays) [16]; 125 g ai/ha): 0
- Plant response rating, Corn (corn (Zea mays) [16]; 500 g ai/ha): 0
- Plant response rating, Pigweed ([17]; 125 g ai/ha): 0
- Plant response rating, Pigweed ([17]; 500 g ai/ha): 0
- Plant response rating, Ducksalad [18]: 0

Compound: Clc1ccc(-c2cccnc2Oc2ncc(Cl)cn2)nc1 [Compound 12, 5-chloro-2-[(5-chloro[2,3′-bipyridin]-2′-yl)oxy]pyrimidine]
- Plant response rating, Foxtail, Giant ([2]; 31 g ai/ha): 0
- Plant response rating, Foxtail, Giant ([2]; 125 g ai/ha): 0
- Plant response rating, Wheat ([3]; 31 g ai/ha): 0
- Plant response rating, Wheat ([3]; 125 g ai/ha): 0
- Plant response rating, Ryegrass, Italian ([19]; 31 g ai/ha): 0
- Plant response rating, Ryegrass, Italian ([19]; 125 g ai/ha): 0
- Plant response rating, Sedge, Umbrella [7]: 30
- Plant response rating, Rice (rice (Oryza sativa)): 20
- Plant response rating, Foxtail, Giant ([10]; 31 g ai/ha): 0
- Plant response rating, Foxtail, Giant ([10]; 125 g ai/ha): 0
- Plant response rating, Blackgrass ([20]; 31 g ai/ha): 0
- Plant response rating, Blackgrass ([20]; 125 g ai/ha): 0
- Plant response rating, Barnyardgrass ([11]; 31 g ai/ha): 0
- Plant response rating, Barnyardgrass ([11]; 125 g ai/ha): 30
- Plant response rating, Ryegrass, Italian ([21]; 31 g ai/ha): 0
- Plant response rating, Ryegrass, Italian ([21]; 125 g ai/ha): 0
- Plant response rating, Ragweed ([22]; 31 g ai/ha): 0
- Plant response rating, Ragweed ([22]; 125 g ai/ha): 0
- Plant response rating, Pigweed ([12]; 31 g ai/ha): 10
- Plant response rating, Pigweed ([12]; 125 g ai/ha): 30
- Plant response rating, Ragweed ([23]; 31 g ai/ha): 0
- Plant response rating, Ragweed ([23]; 125 g ai/ha): 10
- Plant response rating, Kochia (kochia (Kochia scoparia) [24]; 31 g ai/ha): 0
- Plant response rating, Kochia (kochia (Kochia scoparia) [24]; 125 g ai/ha): 40
- Plant response rating, Corn (corn (Zea mays) [14]; 31 g ai/ha): 0
- Plant response rating, Corn (corn (Zea mays) [14]; 125 g ai/ha): 10
- Plant response rating, Barnyardgrass ([15]; 31 g ai/ha): 0
- Plant response rating, Barnyardgrass ([15]; 125 g ai/ha): 0
- Plant response rating, Kochia (kochia (Kochia scoparia) [25]; 31 g ai/ha): 0
- Plant response rating, Kochia (kochia (Kochia scoparia) [25]; 125 g ai/ha): 40
- Plant response rating, Pigweed ([17]; 31 g ai/ha): 0
- Plant response rating, Pigweed ([17]; 125 g ai/ha): 60
- Plant response rating, Ducksalad [18]: 30
- Plant response rating, Galium ([26]; 31 g ai/ha): 10
- Plant response rating, Galium ([26]; 125 g ai/ha): 10
- Plant response rating, Barnyardgrass [27]: 0
